In PubChem BioAssay (NCI):
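96-well plates; 48 h exposure; 5 concentrations. Endpoints by linear interpolation between flanking doses. Not reached: highest tested concentration assigned. At the GI50, growth is halved. TGI: concentration producing complete growth inhibition.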

Assays:
Experiment in all cases: DTP human tumour cell line panel, 48 h
A498 renal = system: A498 renal
EKVX NSCLC = system: EKVX NSCLC
HS 578T breast = system: HS 578T breast
SK-MEL-28 melanoma = system: SK-MEL-28 melanoma
SK-MEL-5 melanoma = system: SK-MEL-5 melanoma
SNB-75 CNS = system: SNB-75 CNS
T-47D breast = system: T-47D breast
TK-10 renal = system: TK-10 renal
U251 CNS = system: U251 CNS
SF-539 CNS = system: SF-539 CNS

SMILES	TGI (A498 renal) [µM]	TGI (EKVX NSCLC) [µM]	TGI (HS 578T breast) [µM]	TGI (SK-MEL-28 melanoma) [µM]	TGI (SK-MEL-5 melanoma) [µM]	TGI (SNB-75 CNS) [µM]	TGI (T-47D breast) [µM]	TGI (TK-10 renal) [µM]	TGI (U251 CNS) [µM]	GI50 (A498 renal) [µM]	GI50 (EKVX NSCLC) [µM]	GI50 (HS 578T breast) [µM]	GI50 (SF-539 CNS) [µM]	TGI (SF-539 CNS) [µM]	GI50 (SK-MEL-28 melanoma) [µM]	GI50 (SK-MEL-5 melanoma) [µM]	GI50 (SNB-75 CNS) [µM]	GI50 (T-47D breast) [µM]	GI50 (TK-10 renal) [µM]	GI50 (U251 CNS) [µM]
O=C(CN1C(=O)c2ccccc2C1=O)NC1(C(=O)O)CCCC1	> 100	> 100	> 100	> 100	> 100	> 100	> 100	> 100	> 100	–	–	–	–	–	–	–	–	–	–	–
C=CC(=O)N1CC[C@@H](Oc2nc(Nc3ccc(N4CCC(N5CCN(C)CC5)CC4)cc3)c(C(N)=O)nc2CC)C1	> 100	> 100	> 100	> 100	> 100	> 100	> 100	> 100	> 100	> 100	> 100	> 100	> 100	> 100	> 100	> 100	> 100	> 100	> 100	> 100
CCN(CC)CCCC(C)NC(=S)N/N=C(\C)c1ccccn1 (stereo unspecified)	97	> 100	> 100	> 100	4.2	> 100	> 100	> 100	> 100	2.57	6.71	43.9	3.33	82	16.9	1.7	7.55	5.36	21.6	2.78
Nc1nc(N)c2nn(-c3ccc(C(=O)O)cc3)nc2n1	> 100	> 100	> 100	> 100	> 100	> 100	> 100	> 100	> 100	–	–	–	–	> 100	–	–	–	–	–	–
O=C1c2cccc3cc4ccccc4c(c23)C(=O)N1CCCNCCNCCCN1C(=O)c2cccc3cc4ccccc4c(c23)C1=O	1.91	2.37	1.98	–	1.39	1.48	2.54	2.18	1.73	–	–	–	–	1.45	–	–	–	–	–	–
COc1ccc(C(=O)CC(Cl)=C(Cl)Cl)cc1	> 100	> 100	> 100	37.2	> 100	–	61.9	59.9	> 100	> 100	28.5	> 100	37.2	> 100	16	33.8	–	26.2	23.9	36
CCCCCCCCCCCCOC1C(C(COC2OC(C(O)CO)C3OC(C)(C)OC23)OC(=O)Nc2ccc([N+](=O)[O-])cc2)OC2OC(C)(C)OC21 (stereo unspecified)	6.09	6.21	3.74	22.7	3.11	16.1	16.9	7.29	3.59	2.63	2.34	1.88	4.15	14.7	9.84	1.71	3.64	4.71	2.68	1.85
